Experiment: Storage stability in three ICH conditions for three months (water content, purity, PXRD)
Format: physicochemical
Conditions: for storage stability: all three ICH conditions for three months
Description: The data presented below substantiate that the Form RLP has a high storage stability. Pack-1 (Normal LDPE Bag with 1 g Silica Gel, Packed in a HDPE Container):
Pack-2 (Black Colored LDPE Bag with 1 g Silica Gel, Packed in a HDPE Container):
The data presented below substantiate that the Form RNM has a high storage stability.
Pack-1 (LDPE Bag with 1 g Molecular Sieve, Packed in a HDPE Container):
Pack-2 (LDPE Bag with 1 g Silica Gel, Packed in a HDPE Container): […]

[1] = Pack-1 (Normal LDPE Bag with 1 g Silica Gel, HDPE Container), 2-8° C., 1st Month
[2] = Pack-1 (Normal LDPE Bag with 1 g Silica Gel, HDPE Container), 2-8° C., 3rd Month
[3] = Pack-1 (Normal LDPE Bag with 1 g Silica Gel, HDPE Container), 2-8° C., Initial
[4] = Pack-1 (Normal LDPE Bag with 1 g Silica Gel, HDPE Container), 25 ± 2° C., 60 ± 5% RH, 1st Month
[5] = Pack-1 (Normal LDPE Bag with 1 g Silica Gel, HDPE Container), 25 ± 2° C., 60 ± 5% RH, 3rd Month
[6] = Pack-1 (Normal LDPE Bag with 1 g Silica Gel, HDPE Container), 25 ± 2° C., 60 ± 5% RH, Initial
[7] = Pack-1 (Normal LDPE Bag with 1 g Silica Gel, HDPE Container), 40 ± 2° C., 75 ± 5% RH, 1st Month
[8] = Pack-1 (Normal LDPE Bag with 1 g Silica Gel, HDPE Container), 40 ± 2° C., 75 ± 5% RH, 3rd Month
[9] = Pack-1 (Normal LDPE Bag with 1 g Silica Gel, HDPE Container), 40 ± 2° C., 75 ± 5% RH, Initial
[10] = Pack-2 (Black Colored LDPE Bag with 1 g Silica Gel, HDPE Container), 2-8° C., 1st Month
[11] = Pack-2 (Black Colored LDPE Bag with 1 g Silica Gel, HDPE Container), 2-8° C., 3rd Month
[12] = Pack-2 (Black Colored LDPE Bag with 1 g Silica Gel, HDPE Container), 2-8° C., Initial
[13] = Pack-2 (Black Colored LDPE Bag with 1 g Silica Gel, HDPE Container), 25 ± 2° C., 60 ± 5% RH, 1st Month
[14] = Pack-2 (Black Colored LDPE Bag with 1 g Silica Gel, HDPE Container), 25 ± 2° C., 60 ± 5% RH, 3rd Month
[15] = Pack-2 (Black Colored LDPE Bag with 1 g Silica Gel, HDPE Container), 25 ± 2° C., 60 ± 5% RH, Initial
[16] = Pack-2 (Black Colored LDPE Bag with 1 g Silica Gel, HDPE Container), 40 ± 2° C., 75 ± 5% RH, 1st Month
[17] = Pack-2 (Black Colored LDPE Bag with 1 g Silica Gel, HDPE Container), 40 ± 2° C., 75 ± 5% RH, 3rd Month
[18] = Pack-2 (Black Colored LDPE Bag with 1 g Silica Gel, HDPE Container), 40 ± 2° C., 75 ± 5% RH, Initial
[19] = Pack-1 (LDPE Bag with 1 g Molecular Sieve, HDPE Container), 2-8° C., 1st Month
[20] = Pack-1 (LDPE Bag with 1 g Molecular Sieve, HDPE Container), 2-8° C., 3rd Month
[21] = Pack-1 (LDPE Bag with 1 g Molecular Sieve, HDPE Container), 2-8° C., Initial
[22] = Pack-1 (LDPE Bag with 1 g Molecular Sieve, HDPE Container), 25 ± 2° C., 60 ± 5% RH, 1st Month
[23] = Pack-1 (LDPE Bag with 1 g Molecular Sieve, HDPE Container), 25 ± 2° C., 60 ± 5% RH, 3rd Month
[24] = Pack-1 (LDPE Bag with 1 g Molecular Sieve, HDPE Container), 25 ± 2° C., 60 ± 5% RH, Initial
[25] = Pack-1 (LDPE Bag with 1 g Molecular Sieve, HDPE Container), 40 ± 2° C., 75 ± 5% RH, 1st Month
[26] = Pack-1 (LDPE Bag with 1 g Molecular Sieve, HDPE Container), 40 ± 2° C., 75 ± 5% RH, 3rd Month
[27] = Pack-1 (LDPE Bag with 1 g Molecular Sieve, HDPE Container), 40 ± 2° C., 75 ± 5% RH, Initial
[28] = Pack-2 (LDPE Bag with 1 g Silica Gel, HDPE Container), 2-8° C., 1st Month
[29] = Pack-2 (LDPE Bag with 1 g Silica Gel, HDPE Container), 2-8° C., 3rd Month
[30] = Pack-2 (LDPE Bag with 1 g Silica Gel, HDPE Container), 2-8° C., Initial
[31] = Pack-2 (LDPE Bag with 1 g Silica Gel, HDPE Container), 25 ± 2° C., 60 ± 5% RH, 1st Month
[32] = Pack-2 (LDPE Bag with 1 g Silica Gel, HDPE Container), 25 ± 2° C., 60 ± 5% RH, 3rd Month
[33] = Pack-2 (LDPE Bag with 1 g Silica Gel, HDPE Container), 25 ± 2° C., 60 ± 5% RH, Initial
[34] = Pack-2 (LDPE Bag with 1 g Silica Gel, HDPE Container), 40 ± 2° C., 75 ± 5% RH, 1st Month
[35] = Pack-2 (LDPE Bag with 1 g Silica Gel, HDPE Container), 40 ± 2° C., 75 ± 5% RH, 3rd Month
[36] = Pack-2 (LDPE Bag with 1 g Silica Gel, HDPE Container), 40 ± 2° C., 75 ± 5% RH, Initial

In the case of `Cc1nc(C(=O)NCC(=O)O)c(O)c2ccc(Oc3ccccc3)cc12.O=C(O)[C@@H]1CCCN1` [Form RLP], the PXRD [1] is reported as “No change”, the Purity [1] is reported as 99.84% and the Water content [1] is reported as 0.11 % w/w. The PXRD [2] was “No change”, the Purity [2] was 99.85% and the Water content [2] was 0.14 % w/w. For the same compound, the PXRD [3] was “Form RLP”, the Purity [3] was 99.84% and the Water content [3] was 0.09 % w/w. For the same compound, the PXRD [4] was “No change”, the Purity [4] was 99.84% and the Water content [4] was 0.14 % w/w. The PXRD [5] was “No change”, the Purity [5] was 99.86% and the Water content [5] was 0.12 % w/w. For the same compound, the PXRD [6] was “Form RLP”, the Purity [6] was 99.84% and the Water content [6] was 0.09 % w/w. The PXRD [7] was “No change”, the Purity [7] was 99.84% and the Water content [7] was 0.16 % w/w. For the same compound, the PXRD [8] was “No change”, the Purity [8] was 99.83% and the Water content [8] was 0.21 % w/w. The PXRD [9] was “Form RLP”, the Purity [9] was 99.84% and the Water content [9] was 0.09 % w/w. For the same compound, the PXRD [10] was “No change”, the Purity [10] was 99.82% and the Water content [10] was 0.14 % w/w. The PXRD [11] was “No change”, the Purity [11] was 99.85% and the Water content [11] was 0.16 % w/w. The PXRD [12] was “Form RLP”, the Purity [12] was 99.84% and the Water content [12] was 0.09 % w/w. The PXRD [13] was “No change”, the Purity [13] was 99.84% and the Water content [13] was 0.11 % w/w. For the same compound, the PXRD [14] was “No change”, the Purity [14] was 99.82% and the Water content [14] was 0.13 % w/w. The PXRD [15] was “Form RLP”, the Purity [15] was 99.84% and the Water content [15] was 0.09 % w/w. The PXRD [16] was “No change”, the Purity [16] was 99.83% and the Water content [16] was 0.14 % w/w. For the same compound, the PXRD [17] was “No change”, the Purity [17] was 99.85% and the Water content [17] was 0.11 % w/w. For the same compound, the PXRD [18] was “Form RLP”, the Purity [18] was 99.84% and the Water content [18] was 0.09 % w/w. For the same compound, the storage stability was “stable”.
With `Cc1nc(C(=O)NCC(=O)O)c(O)c2ccc(Oc3ccccc3)cc12.NC(=O)c1cccnc1` [Form RNM] the PXRD [19] was “No change”, the Purity [19] was 99.66% and the Water content [19] was 0.08 % w/w. The PXRD [20] was “No change”, the Purity [20] was 99.66% and the Water content [20] was 0.08 % w/w. For the same compound, the PXRD [21] was “Form RNM”, the Purity [21] was 99.57% and the Water content [21] was 0.12 % w/w. For the same compound, the PXRD [22] was “No change”, the Purity [22] was 99.63% and the Water content [22] was 0.07 % w/w. The PXRD [23] was “No change”, the Purity [23] was 99.64% and the Water content [23] was 0.08 % w/w. For the same compound, the PXRD [24] was “Form RNM”, the Purity [24] was 99.57% and the Water content [24] was 0.12 % w/w. For the same compound, the PXRD [25] was “No change”, the Purity [25] was 99.65% and the Water content [25] was 0.10 % w/w. The PXRD [26] was “No change”, the Purity [26] was 99.62% and the Water content [26] was 0.07 % w/w. The PXRD [27] was “Form RNM”, the Purity [27] was 99.57% and the Water content [27] was 0.12 % w/w. For the same compound, the PXRD [28] was “No change”, the Purity [28] was 99.62% and the Water content [28] was 0.10 % w/w. For the same compound, the PXRD [29] was “No change”, the Purity [29] was 99.65% and the Water content [29] was 0.08 % w/w. The PXRD [30] was “Form RNM”, the Purity [30] was 99.57% and the Water content [30] was 0.12 % w/w. For the same compound, the PXRD [31] was “No change”, the Purity [31] was 99.65% and the Water content [31] was 0.07 % w/w. For the same compound, the PXRD [32] was “No change”, the Purity [32] was 99.64% and the Water content [32] was 0.11 % w/w. The PXRD [33] was “Form RNM”, the Purity [33] was 99.57% and the Water content [33] was 0.12 % w/w. For the same compound, the PXRD [34] was “No change”, the Purity [34] was 99.61% and the Water content [34] was 0.12 % w/w. The PXRD [35] was “No change”, the Purity [35] was 99.62% and the Water content [35] was 0.07 % w/w. For the same compound, the PXRD [36] was “Form RNM”, the Purity [36] was 99.57% and the Water content [36] was 0.12 % w/w. For the same compound, the storage stability was “stable”.

Source: patent publication US11168057B2, “Polymorphs and co-crystals of roxadustat” (DR. REDDY'S LABORATORIES LIMITED, priority 2017, dated 2021)
